Experiments:
Assay type in all cases: cell-based
rat SVCT1 = target: T1, rat SVCT1 (Rattus norvegicus, UniProt Q9WTW7); assay: Two-microelectrode voltage-clamp of Xenopus oocytes expressing rat SVCT1
T1 construct: expressed in transfected cells; host or cells: Xenopus laevis oocytes injected with cRNA
Procedure: Rat SVCT1 and SVCT2 clones were obtained by isolating SVCT1 cDNA from rat kidney by expression cloning as described in Hediger et al., Methods Enzymol. 296:17-52 (1998). The SVCT2 cDNA was subsequently isolated by PCR-based homology screening of a rat brain cDNA library. […] Radiotracer and voltage-clamp experiments were performed (at 22° C.) in Xenopus oocytes two to seven days after injection with ˜25 ng of SVCT1 or SVCT2 cRNA synthesized in vitro. Radiotracer uptake was determined by incubating 6-10 oocytes for 30 or 60 min in standard 100 mM Na^+ or Na^+-free media with 10-600 μM L-[^14C]ascorbic acid.
Functional characterization of SVCT1 and SVCT2 in Xenopus oocytes—Oocytes were isolated from Xenopus laevis (under 2-aminoethylbenzoate anaesthesia), treated with collagenase A and stored at 18° C. in modified Barths' medium. Oocytes were injected with ≈25 ng of SVCT1 or SVCT2 cRNA synthesized in vitro, or water only (control), and incubated 2-7 days before radiotracer or voltage-clamp experiments were performed. Standard Na^+ uptake medium comprised 100 mM NaCl, 2 mM KCl, 1 mM CaCl2, 1 mM MgCl2, 10 mM HEPES (pH 7.5 with Tris base). For Na^+-free or low-Na^+ media, NaCl was replaced by equimolar choline chloride; likewise, Cl^− was replaced by gluconate for Cl^−-free medium. For pH-sensitivity experiments, Na^+ media were buffered at pH 5.5-8.0 using 0-5 mM MES, 0-5 mM HEPES and 0-5 mM Tris base. L-Ascorbic acid-containing solutions were freshly-prepared (without dithiothreitol) and used immediately.
Radiotracer uptake was determined by incubating 6-10 oocytes for 30 or 60 min in standard Na^+ or Na^+-free media (at 22° C.) with 10-600 μM L-[1-^14C]ascorbic acid (final specific activity 0.3 GBq/mmol). Oocytes were solubilized with 10% SDS and [^14C]-content was measured by liquid scintillation counting. A two-microelectrode voltage-clamp was used to measure currents in control oocytes and oocytes injected with rat SVCT1 or rat SVCT2 cRNA. Microelectrodes (resistance 0.5-5 MΩ) were filled with 3 M KCl. Oocytes were superfused at 22° C. in standard Na^+ medium and clamped at a holding potential (Vh) of −50 mV. For continuous current monitoring at Vh=−50 mV, the current was low-pass filtered at 20 Hz (sampling at 1 Hz). Additionally, step-changes in membrane potential (Vm) were applied (from +50 mV to −150 mV in 20-mV increments), each for a duration of 100 ms, before and after the addition of substrate; current was low-pass filtered at 500 Hz and digitized at 5 kHz. Test solutions were always washed out with substrate-free medium (100 mM choline chloride) at pH 7.5 for several minutes. Steady-state data (obtained by averaging the points over the final 16.7 ms at each Vm step when step-changes were applied) were fitted to equation (1) below, for which I is the evoked current (i.e., the difference in steady-state current measured in the presence and absence of substrate), Imax the derived current maximum, S the concentration of substrate S (Na^+ or L-ascorbic acid),
[formula] the substrate concentration at which current was half-maximal, and nH the Hill coefficient for S. (For radiotracer experiments, I was replaced with velocity V and Imax replaced with the derived maximal velocity, Vmax.)

human SVCT1 = target: T2, human SVCT1 (Homo sapiens, UniProt Q9UHI7); assay: Two-microelectrode voltage-clamp of Xenopus oocytes expressing human SVCT1
T2 construct: expressed in transfected cells; host or cells: Xenopus laevis oocytes injected with cRNA (vector pTLN2)
T2 sequence (Q9UHI7 whole entry): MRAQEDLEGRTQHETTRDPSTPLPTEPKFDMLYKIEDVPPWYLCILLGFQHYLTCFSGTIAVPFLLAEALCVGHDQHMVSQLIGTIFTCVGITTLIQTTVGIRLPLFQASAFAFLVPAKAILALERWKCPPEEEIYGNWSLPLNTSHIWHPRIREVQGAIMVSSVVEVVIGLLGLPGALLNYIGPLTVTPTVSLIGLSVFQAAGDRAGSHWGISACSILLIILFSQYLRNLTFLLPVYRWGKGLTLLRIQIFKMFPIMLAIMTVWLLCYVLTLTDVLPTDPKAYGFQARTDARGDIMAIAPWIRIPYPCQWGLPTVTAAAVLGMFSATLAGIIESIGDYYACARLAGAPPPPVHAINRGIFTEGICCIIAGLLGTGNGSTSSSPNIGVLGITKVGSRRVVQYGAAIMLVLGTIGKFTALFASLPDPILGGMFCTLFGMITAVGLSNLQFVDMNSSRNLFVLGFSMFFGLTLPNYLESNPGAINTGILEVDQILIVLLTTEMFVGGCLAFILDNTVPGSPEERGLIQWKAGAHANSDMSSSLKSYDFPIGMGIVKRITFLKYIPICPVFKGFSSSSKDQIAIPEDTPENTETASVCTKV
Procedure: Functional characterization in Xenopus oocytes—SVCT1 and SVCT2 cDNAs were subcloned into the pTLN2 vector (to improve functional expression in oocytes) and used for cRNA synthesis in vitro using the MEGAscript kit and T7 RNA polymerase (from Ambion). Oocytes were isolated from Xenopus laevis, treated with collagenase A and maintained at 18° C. in modified Barths' medium. Oocytes were injected with 15 ng SVCT1 or SVCT2 cRNA or water only. The radiotracer uptake and voltage-clamp experiments described below were conducted 2-5 days post-injection in standard medium of composition 100 mM NaCl, 2 mM KCl, 1 mM CaCl2, 1 mM MgCl2, and 10 mM HEPES (buffered to pH 7.5 with Tris base). For low-Na^+ or Na^+-free media, NaCl was replaced with choline chloride. For pH-dependence experiments, Na^+ media were buffered to between pH 5.5 and pH 8.0 using 0-5 mM MES, 0-5 mM HEPES and 0-5 mM Tris base. L-Ascorbic acid-containing solutions were always freshly prepared and used immediately. Radiotracer uptake was determined by incubating 8-12 oocytes for 30 min (within the time-course of linear uptake) in standard Na^+, low-Na^+ or Na^+-free media with 10-500 μM L-[1-^14C]ascorbic acid (final specific activity ≈0.3 GBq/mmol). Oocytes were solubilized with 10% SDS and carbon-14 content measured by liquid scintillation counting. A two-microelectrode voltage-clamp was used to measure currents associated with SVCT1 expressed in oocytes. Oocytes were superfused at 22° C. in standard Na^+ medium and clamped at −50 mV. Current was continuously monitored by sampling at 1 Hz. Test solutions were always washed out with substrate-free, Na^+-free medium at pH 7.5 for several minutes. Once again, saturation kinetics data were fit to a modified Hill equation in which I and Imax were replaced by uptake V and maximal velocity Vmax for analysis of radiotracer uptake data.

rat SVCT2 = target: T3, rat SVCT2 (Rattus norvegicus, UniProt Q9WTW8); assay: Two-microelectrode voltage-clamp of Xenopus oocytes expressing rat SVCT2; details: oocytes expressing SVCT2, in the presence of Na^+
T3 construct: expressed in transfected cells; host or cells: Xenopus laevis oocytes injected with cRNA (vector pTLN2)
T3 sequence (Q9WTW8 whole entry): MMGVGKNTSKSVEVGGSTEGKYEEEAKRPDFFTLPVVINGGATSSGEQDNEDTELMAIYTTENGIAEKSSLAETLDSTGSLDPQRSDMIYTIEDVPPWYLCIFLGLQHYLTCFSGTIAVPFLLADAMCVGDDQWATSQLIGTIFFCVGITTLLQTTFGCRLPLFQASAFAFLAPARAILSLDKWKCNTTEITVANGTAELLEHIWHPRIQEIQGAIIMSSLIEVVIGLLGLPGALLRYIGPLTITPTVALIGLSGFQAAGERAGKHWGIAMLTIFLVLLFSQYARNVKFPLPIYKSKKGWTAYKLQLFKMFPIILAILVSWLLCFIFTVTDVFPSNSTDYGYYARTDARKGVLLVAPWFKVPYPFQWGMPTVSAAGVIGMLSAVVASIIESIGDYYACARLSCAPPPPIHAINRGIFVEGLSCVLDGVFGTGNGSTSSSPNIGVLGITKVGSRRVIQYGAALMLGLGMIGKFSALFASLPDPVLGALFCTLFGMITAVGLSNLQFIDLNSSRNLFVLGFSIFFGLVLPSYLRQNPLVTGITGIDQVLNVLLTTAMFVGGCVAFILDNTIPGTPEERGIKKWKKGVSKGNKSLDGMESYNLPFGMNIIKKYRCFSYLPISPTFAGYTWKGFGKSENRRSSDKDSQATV
Procedure: Rat SVCT1 and SVCT2 clones were obtained by isolating SVCT1 cDNA from rat kidney by expression cloning as described in Hediger et al., Methods Enzymol. 296:17-52 (1998). The SVCT2 cDNA was subsequently isolated by PCR-based homology screening of a rat brain cDNA library. A 2.5-kb rabbit cDNA with 96% identity to residues 96-505 of the rat SVCT2 was obtained by RT-PCR. Radiotracer and voltage-clamp experiments were performed (at 22° C.) in Xenopus oocytes two to seven days after injection with ˜25 ng of SVCT1 or SVCT2 cRNA synthesized in vitro. Radiotracer uptake was determined by incubating 6-10 oocytes for 30 or 60 min in standard 100 mM Na^+ or Na^+-free media with 10-600 μM L-[^14C]ascorbic acid. […]
Radiotracer uptake was determined by incubating 6-10 oocytes for 30 or 60 min in standard Na^+ or Na^+-free media (at 22° C.) with 10-600 μM L-[1-^14C]ascorbic acid (final specific activity 0.3 GBq/mmol). Oocytes were solubilized with 10% SDS and [^14C]-content was measured by liquid scintillation counting. […] Steady-state data (obtained by averaging the points over the final 16.7 ms at each Vm step when step-changes were applied) were fitted to equation (1) below, for which I is the evoked current (i.e., the difference in steady-state current measured in the presence and absence of substrate), Imax the derived current maximum, S the concentration of substrate S (Na^+ or L-ascorbic acid), […]

T1 sequence (Q9WTW7 whole entry): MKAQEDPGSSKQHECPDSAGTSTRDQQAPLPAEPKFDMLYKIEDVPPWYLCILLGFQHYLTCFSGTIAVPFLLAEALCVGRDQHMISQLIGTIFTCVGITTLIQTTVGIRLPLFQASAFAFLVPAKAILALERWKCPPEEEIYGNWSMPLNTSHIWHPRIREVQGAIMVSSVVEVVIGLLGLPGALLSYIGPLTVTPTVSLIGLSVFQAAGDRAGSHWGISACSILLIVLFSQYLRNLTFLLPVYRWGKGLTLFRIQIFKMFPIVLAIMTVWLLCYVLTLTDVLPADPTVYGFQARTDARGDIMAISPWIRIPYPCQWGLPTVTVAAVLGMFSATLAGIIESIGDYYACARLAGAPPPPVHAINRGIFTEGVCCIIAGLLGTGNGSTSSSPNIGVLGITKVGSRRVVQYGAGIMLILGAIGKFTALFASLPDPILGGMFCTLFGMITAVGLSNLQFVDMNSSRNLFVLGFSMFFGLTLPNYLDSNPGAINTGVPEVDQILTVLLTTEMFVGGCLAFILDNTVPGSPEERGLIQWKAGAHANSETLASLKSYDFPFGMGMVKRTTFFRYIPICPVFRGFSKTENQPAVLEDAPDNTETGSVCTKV

Hill coefficient (nH) (rat SVCT1; evoked currents, −50 mV): ≈ 1 | reduction of evoked currents at pH 5.5 versus pH 7.5 (rat SVCT1; extracellular pH 5.5 compared with pH 7.5): 50% | L-ascorbic acid-evoked reversible inward currents (rat SVCT1; oocytes expressing SVCT1, in the presence of Na^+): up to −100 nA | K0.5 (L-ascorbic acid concentration at which currents were half-maximal) (rat SVCT1; −50 mV, 100 mM Na^+): 30 µM | reduction in current at pH 5.5 compared with pH 7.5 (human SVCT1; 500 μM L-ascorbic acid, −50 mV): > 60% | L-ascorbic acid-evoked current (human SVCT1; 500 μM, −50 mV, mean±SEM from eight oocytes): −114±20 nA | L-ascorbic acid-evoked reversible inward currents (human SVCT1; in the presence of extracellular Na^+): up to −150 nA | K0.5 based on evoked currents (human SVCT1; −50 mV, 100 mM Na^+, mean±propagated SEM from 5 oocytes): 54 ± 10 µM | L-ascorbic acid-evoked reversible inward currents (rat SVCT2): up to −10 nA
Compound: O=C1O[C@H]([C@@H](O)CO)C(O)=C1O [L-ascorbic acid]

From patent publication US7371536B2, “Methods for transporting vitamin C” (priority 1999, dated 2008)
